The CheMixHub viscosity set
± gives the uncertainty stated by the source.

Test: xn = mol fraction of the nth substance listed

C=C(C)C(=O)OC + C1CCCCC1
303.15 K, 101 kPa
Conditions	viscosity [mPa·s]
x1 = 0.1178	0.6811 ± 0.0067
x1 = 0.2021	0.6254 ± 0.0063
x1 = 0.3973	0.5474 ± 0.0059
x1 = 0.4984	0.5261 ± 0.0058
x1 = 0.5963	0.5188 ± 0.0058
x1 = 0.804	0.5141 ± 0.0058
x1 = 0.9019	0.5099 ± 0.0057

ClCCCCCCCl + C1CCCCC1
viscosity [mPa·s], 101 kPa
Conditions	x1 = 0.07055	x1 = 0.1468	x1 = 0.2554	x1 = 0.3491	x1 = 0.4438	x1 = 0.5446	x1 = 0.6382	x1 = 0.7449	x1 = 0.8743
308.15 K	0.796 ± 0.017	0.835 ± 0.018	0.893 ± 0.019	0.948 ± 0.02	1.022 ± 0.022	1.113 ± 0.024	1.206 ± 0.026	1.322 ± 0.028	1.467 ± 0.031
313.15 K	0.721 ± 0.015	0.759 ± 0.016	0.818 ± 0.017	0.873 ± 0.018	0.947 ± 0.02	1.036 ± 0.022	1.126 ± 0.024	1.246 ± 0.026	1.387 ± 0.029
318.15 K	0.681 ± 0.014	0.711 ± 0.015	0.76 ± 0.016	0.804 ± 0.017	0.865 ± 0.018	0.942 ± 0.02	1.027 ± 0.022	1.133 ± 0.024	1.259 ± 0.027

C=C(C)C(=O)OC + CC#N
viscosity [mPa·s], 101 kPa
Conditions	298.15 K	303.15 K	308.15 K	313.15 K	318.15 K
x2 = 0.0688	0.5536 ± 0.012	0.5171 ± 0.011	0.4878 ± 0.01	0.4643 ± 0.0099	0.4465 ± 0.0095
x2 = 0.1376	0.5439 ± 0.011	0.5091 ± 0.011	0.4811 ± 0.01	0.4585 ± 0.0097	0.4413 ± 0.0094
x2 = 0.1957	0.5346 ± 0.011	0.5013 ± 0.011	0.4745 ± 0.01	0.4526 ± 0.0096	0.4359 ± 0.0093
x2 = 0.2716	0.5214 ± 0.011	0.4899 ± 0.01	0.4643 ± 0.0099	0.4435 ± 0.0094	0.4275 ± 0.0091
x2 = 0.3344	0.5094 ± 0.011	0.4795 ± 0.01	0.455 ± 0.0097	0.435 ± 0.0092	0.4194 ± 0.0089
x2 = 0.4135	0.4932 ± 0.01	0.4651 ± 0.0099	0.442 ± 0.0094	0.423 ± 0.009	0.4079 ± 0.0087
x2 = 0.4916	0.4761 ± 0.01	0.4498 ± 0.0096	0.4281 ± 0.0091	0.41 ± 0.0087	0.3954 ± 0.0084
x2 = 0.5649	0.4592 ± 0.0097	0.4344 ± 0.0092	0.4138 ± 0.0088	0.3967 ± 0.0084	0.3825 ± 0.0081
x2 = 0.6386	0.4413 ± 0.0094	0.4183 ± 0.0089	0.3988 ± 0.0085	0.3825 ± 0.0081	0.3687 ± 0.0078
x2 = 0.7084	0.4238 ± 0.009	0.4023 ± 0.0086	0.3839 ± 0.0082	0.3683 ± 0.0078	0.3549 ± 0.0076
x2 = 0.7927	0.402 ± 0.0085	0.3823 ± 0.0081	0.3652 ± 0.0078	0.3505 ± 0.0075	0.3375 ± 0.0072
x2 = 0.855	0.3855 ± 0.0082	0.3672 ± 0.0078	0.351 ± 0.0075	0.3367 ± 0.0072	0.324 ± 0.0069
x2 = 0.9073	0.3714 ± 0.0079	0.3541 ± 0.0075	0.3387 ± 0.0072	0.3249 ± 0.0069	0.3123 ± 0.0067
x2 = 0.9497	0.3599 ± 0.0077	0.3435 ± 0.0073	0.3286 ± 0.007	0.3152 ± 0.0067	0.3028 ± 0.0065

C[N+](C)(C)CCC[N+]1(C)CCCCC1.N#C[N-]C#N.N#C[N-]C#N + CC#N
viscosity [mPa·s], 100 kPa
Conditions	x1 = 0.0999	x1 = 0.7001	x1 = 0.7996
298.15 K	–	–	895.3 ± 100
318.15 K	2.675 ± 0.27	163.5 ± 17	–

C=C(C)C(=O)OC + CC(C)(C)O
viscosity [mPa·s], 101.3 kPa
Conditions	298.15 K	308.15 K
x1 = 0.0571	3.463 ± 0.02	2.088 ± 0.012
x1 = 0.1587	2.316 ± 0.013	1.51 ± 0.009
x1 = 0.256	1.652 ± 0.01	1.15 ± 0.007
x1 = 0.3589	1.217 ± 0.007	0.898 ± 0.006
x1 = 0.4561	0.956 ± 0.006	0.738 ± 0.005
x1 = 0.4983	0.873 ± 0.006	0.686 ± 0.005
x1 = 0.5567	0.782 ± 0.005	0.627 ± 0.004
x1 = 0.6571	0.672 ± 0.005	0.555 ± 0.004
x1 = 0.7563	0.608 ± 0.004	0.511 ± 0.004
x1 = 0.841	0.58 ± 0.004	0.491 ± 0.004
x1 = 0.9335	0.573 ± 0.004	0.486 ± 0.004

C=C(C)C(=O)OC + CC(C)CO
viscosity [mPa·s], 101.3 kPa
Conditions	298.15 K	308.15 K
x1 = 0.0547	2.74 ± 0.016	2.077 ± 0.013
x1 = 0.1398	2.067 ± 0.012	1.621 ± 0.01
x1 = 0.2311	1.576 ± 0.01	1.274 ± 0.008
x1 = 0.33	1.22 ± 0.008	1.012 ± 0.006
x1 = 0.4577	0.927 ± 0.006	0.788 ± 0.005
x1 = 0.5037	0.852 ± 0.006	0.73 ± 0.005
x1 = 0.5427	0.799 ± 0.005	0.687 ± 0.005
x1 = 0.6552	0.686 ± 0.005	0.595 ± 0.004
x1 = 0.7288	0.638 ± 0.004	0.553 ± 0.004
x1 = 0.8409	0.594 ± 0.004	0.512 ± 0.004
x1 = 0.9341	0.581 ± 0.004	0.495 ± 0.004

CCCCOP(=O)(O)OCCCC + CC(C)N
297 K, 101 kPa
Conditions	viscosity [mPa·s]
x2 = 0.15	80 ± 10
x2 = 0.3	240 ± 80
x2 = 0.48	4070 ± 980
x2 = 0.5	4750 ± 1200
x2 = 0.66	260 ± 90
x2 = 0.85	100 ± 10

C=C(C)C(=O)OC + CC(C)O
viscosity [mPa·s], 101.3 kPa
Conditions	298.15 K	308.15 K
x1 = 0.0556	1.716 ± 0.011	1.339 ± 0.008
x1 = 0.1557	1.314 ± 0.008	1.051 ± 0.007
x1 = 0.2605	1.034 ± 0.007	0.845 ± 0.006
x1 = 0.3541	0.862 ± 0.006	0.717 ± 0.005
x1 = 0.4318	0.76 ± 0.005	0.638 ± 0.004
x1 = 0.5041	0.689 ± 0.005	0.583 ± 0.004
x1 = 0.5537	0.651 ± 0.005	0.553 ± 0.004
x1 = 0.6557	0.596 ± 0.004	0.509 ± 0.004
x1 = 0.7561	0.567 ± 0.004	0.484 ± 0.004
x1 = 0.8542	0.559 ± 0.004	0.477 ± 0.004
x1 = 0.9512	0.571 ± 0.004	0.483 ± 0.004

C=C(C)C(=O)OC + CC(C)OC(C)C
viscosity [mPa·s], 101.3 kPa
Conditions	298.15 K	308.15 K
x1 = 0.0416	0.385 ± 0.003	0.291 ± 0.003
x1 = 0.1479	0.401 ± 0.004	0.309 ± 0.003
x1 = 0.2488	0.417 ± 0.004	0.326 ± 0.003
x1 = 0.3488	0.434 ± 0.004	0.344 ± 0.003
x1 = 0.4527	0.453 ± 0.004	0.364 ± 0.003
x1 = 0.4958	0.461 ± 0.004	0.372 ± 0.003
x1 = 0.5472	0.472 ± 0.004	0.383 ± 0.003
x1 = 0.6489	0.493 ± 0.004	0.404 ± 0.004
x1 = 0.7504	0.517 ± 0.004	0.427 ± 0.004
x1 = 0.8502	0.542 ± 0.004	0.451 ± 0.004
x1 = 0.944	0.569 ± 0.004	0.474 ± 0.004
